Tests used:
Phosphodiesterase 4 = Phosphodiesterase 4 (Homo sapiens, UniProt P27815+Q08499+Q07343+Q08493); assay: Inhibitory activity against phosphodiesterase 4 carried out in the cytosol of human neutrophils; format: protein assay
Mus musculus = assay: Percent inhibition of arachidonic acid induced mouse ear edema after 30 uM/kg peroral pretreatment; format: functional

| SMILES | Log IC50 (Phosphodiesterase 4) | Inhibition (Mus musculus) [%] |
| --- | --- | --- |
| COc1ccc(C2=NNC(=O)[C@H]3CC=CC[C@@H]23)cc1OC | -6.1 | – |
| CCOc1ccc(C2=NN(c3ccc(C(=O)O)cc3)C(=O)[C@@H]3CC=CC[C@H]23)cc1OCC | -8.3 | 47 |
| COc1ccc(C2=NNC(=O)[C@@H]3CC=CC[C@H]23)c2c1OC1(CCCC1)C2 | -8.5 | – |
| COc1ccc(C2=NNC(=O)[C@H]3CCCC[C@@H]23)cc1OC1CCCC1 | -5.8 | – |
| COc1ccc(C2=NNC(=O)C3CCCCC23)cc1OC1CCCC1 (centres undefined) | -6.8 | – |
| COc1ccc(C2=NNC(=O)[C@@H]3CCCC[C@H]23)c2c1OC1(CCCC1)C2 | -7.8 | – |
| CCOC(=O)c1ccc(N2N=C(c3ccc(OCC)c(OCC)c3)[C@H]3CC=CC[C@H]3C2=O)cc1 | -8.2 | 27 |
| COc1ccc(C2=NNC(=O)C3CC=CCC23)cc1OC (racemic) | -7 | – |
| COc1ccc(C2=NNC(=O)C3CCCCC23)c2c1OC1(CCCC1)C2 (racemic) | -7.3 | – |
| COc1ccc(C2=NN(C3C4CC5CC(C4)CC3C5)C(=O)C3CC=CCC23)cc1OC (racemic) | -9.2 | 51 |
| COc1ccc(C2=NNC(=O)C3CC=CCC23)c2c1OC1(CCCC1)C2 (racemic) | -8 | – |
| CCOc1ccc(C2=NN(c3ccc(C(=O)O)cc3)C(=O)C3CC=CCC23)cc1OCC (racemic) | -7.7 | 48 |
| COc1ccc(C2=NNC(=O)[C@@H]3CC=CC[C@H]23)cc1OC (relative stereo) | -7.3 | – |
| COc1ccc(C2=NN(C3C4CC5CC(C4)CC3C5)C(=O)[C@@H]3CC=CC[C@H]23)cc1OC (single isomer, unassigned; (+)) | -9.3 | 49 |
| COc1ccc(C2CNC(=O)C2)cc1OC1CCCC1 (single isomer, unassigned; (-)) [ROLIPRAM] | – | 55 |
| COc1ccc([C@H](Cc2ccncc2)c2ccccc2)cc1OC1CCCC1 [CDP840] | -7.7 | 48 |
| COc1ccc([C@]2(C#N)CC[C@@H](C(=O)O)CC2)cc1OC1CCCC1 [CILOMILAST] | – | 33 |

Continued, in another order:

| Log IC50 (Phosphodiesterase 4) | SMILES | Inhibition (Mus musculus) [%] |
| --- | --- | --- |
| -6.6 | COc1ccc(C2=NNC(=O)[C@H]3CC=CC[C@@H]23)c2c1OC1(CCCC1)C2 | – |
| -7.1 | COc1ccc(C2=NNC(=O)C3CC=CCC23)cc1OC1CCCC1 (centres undefined) | – |
| -5.6 | COc1ccc(C2=NNC(=O)[C@H]3CCCC[C@@H]23)c2c1OC1(CCCC1)C2 | – |
| -6.4 | COc1ccc(C2=NNC(=O)C3CCCCC23)cc1OC (centres undefined) | – |
| -6.7 | COc1ccc(C2=NNC(=O)[C@H]3CC=CC[C@@H]23)cc1OC1CCCC1 | – |
| -5.1 | COc1ccc(C2=NNC(=O)[C@H]3CCCC[C@@H]23)cc1OC | – |
| -8 | CCOC(=O)c1ccc(N2N=C(c3ccc(OCC)c(OCC)c3)C3CC=CCC3C2=O)cc1 (racemic) | – |
| -7.1 | COc1ccc(C2=NNC(=O)[C@@H]3CCCC[C@H]23)cc1OC1CCCC1 (relative stereo) | – |
| -6.9 | COc1ccc(C2=NNC(=O)[C@@H]3CCCC[C@H]23)cc1OC (relative stereo) | – |
| -7.4 | COc1ccc(C2=NNC(=O)[C@@H]3CC=CC[C@H]23)cc1OC1CCCC1 (relative stereo) | – |
| -6.9 | COc1ccc(C2=NN(C3C4CC5CC(C4)CC3C5)C(=O)[C@H]3CC=CC[C@@H]23)cc1OC (single isomer, unassigned; (-)) | – |

Reference: ChEMBL document CHEMBL1135462, “Novel selective phosphodiesterase (PDE4) inhibitors. 4. Resolution, absolute configuration, and PDE4 inhibitory activity of cis-tetra- and cis-hexahydrophthalazinones” (J Med Chem, 2002)
